Source: patent publication US6464991B1, “Oat lipid based surfactants and derivatives and process for preparing same” (Finetex, Inc., priority 1999, dated 2002)

Columns and labels:
Skin Tissue Model = assay: Dermal irritation, Mat-Tek in-vitro Skin Tissue Model (non-animal); format: cell-based
Text: (§1) These studies were done using non-animal test protocols. Skin Tissue Model and Ocular Tissue Model by Mat-Tek Corporation in-vitro systems were used for dermal and ocular irritation studies.

Ocular Tissue Model = assay: Ocular irritation, Mat-Tek in-vitro Ocular Tissue Model (non-animal); format: cell-based
Text: as §1

Which “Dermal Tox Irritation Ratings/Classifications” value (Skin Tissue Model) does the source give for “nonylphenol 10 EO Ethoxylate [Positive Control]” here?
The value was “Moderate to mild range”.

What about the “Ocular Tox Irritation Ratings/Classifications” value (Ocular Tissue Model) of the same substance?
The value was “Moderate to mild range”.
